Test results taken from patent US20230304010A1, “COMPOSITIONS AND METHODS FOR TREATING VIRAL INFECTIONS” (priority 2020, published 2023).
“And” between values parts separate entries of the source, which are not always exact repeats. Equal entries are not always repeated. Where two headings read alike, the source gives them in different places. Ends that are not written are not given here.

How the values were obtained:
Vero E6 cells = conditions: for Cell Viability (%): 0.5 µM
SARS-CoV-2 [1] = assay: microbe, parasite or virus in culture
[2] = target: ACE2:SARS-CoV-2 Spike interaction (UniProt P0DTC2+Q9BYF1); assay: biochemical; assay type: binding
ACE2:SARS-CoV-2 Spike interaction, sequence (Q9BYF1 18-740, one chain of several): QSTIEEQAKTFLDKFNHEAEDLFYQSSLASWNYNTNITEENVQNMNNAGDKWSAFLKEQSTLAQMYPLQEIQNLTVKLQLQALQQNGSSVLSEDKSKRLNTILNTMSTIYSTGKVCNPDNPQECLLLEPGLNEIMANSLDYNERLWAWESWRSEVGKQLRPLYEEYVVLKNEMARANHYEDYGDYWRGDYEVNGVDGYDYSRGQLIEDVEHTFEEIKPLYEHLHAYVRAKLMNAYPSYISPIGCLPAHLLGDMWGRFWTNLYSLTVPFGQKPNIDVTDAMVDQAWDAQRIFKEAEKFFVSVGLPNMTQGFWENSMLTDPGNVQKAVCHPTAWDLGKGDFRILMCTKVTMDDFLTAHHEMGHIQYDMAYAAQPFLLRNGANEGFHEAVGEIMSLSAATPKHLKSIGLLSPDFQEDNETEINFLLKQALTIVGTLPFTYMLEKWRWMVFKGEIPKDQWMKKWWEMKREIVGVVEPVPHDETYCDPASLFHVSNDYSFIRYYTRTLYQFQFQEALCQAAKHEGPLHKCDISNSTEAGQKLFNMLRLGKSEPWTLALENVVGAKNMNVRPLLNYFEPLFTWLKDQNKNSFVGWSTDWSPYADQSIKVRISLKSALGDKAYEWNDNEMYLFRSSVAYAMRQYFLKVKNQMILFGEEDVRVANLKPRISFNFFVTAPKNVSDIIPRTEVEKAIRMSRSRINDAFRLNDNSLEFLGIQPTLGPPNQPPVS

[3] = target: SARS-CoV-2 Spike: ACE2 interaction (UniProt P0DTC2+Q9BYF1); assay: biochemical; assay type: binding
SARS-CoV-2 Spike: ACE2 interaction, sequence (Q9BYF1 18-740, one chain of several): as above

[4] = Nanoparticle formation of peptides with ADGN-106: mean size and polydispersity (Zetasizer); assay type: physicochemical; conditions: 25° C.; for Mean Size (nm): peptide/ADGN-106 complexes; for PI: polydispersity index of peptide/ADGN-106 complexes
Text: We then tested the ability of the different peptides to form nanoparticle organization in the presence of ADGN-106 or ADGN-100 peptide. […] Peptides were complexed with 5 or 10 molar excess of ADGN-106.

[5] = Lung and liver toxicity studies after intratracheal instillation
Procedure: Single dose of peptides or peptide/siRNA complexes were administrated via intratracheal instillation (200 μg) (Table 20). Saline solution was used as negative control. Samples were collected 12, 24, 48 and 72 hr post administration.
The body weight of the mice were recorded before intratracheal instillation (day 0), at day1, day 2 and before being sacrificed (day 3). The lung, liver, heart, kidney and brain were collected at day 3 and organ index were determined.
Bronchoalveolar lavage (BAL) were performed 2 days after instillation. The percentage of the cells, the total protein and level of LDH in the BAL were analyzed.
AST and ALT levels in the plasma were assayed 2 days after instillation.

SARS-CoV-2 [6] = system: SARS-CoV-2
SARS-CoV-2 [7] = system: SARS-CoV-2; remark: listed apart in the source
in vitro = conditions: uninfected Vero E6 cells
[8] = In vivo lung biodistribution after intratracheal instillation (fluorescence imaging, confocal microscopy); conditions: administrated intratracheally
Procedure: To monitor DIVC-6 siRNA biodistribution, the siRNA was labelled with Cy-5.5.
In vivo lung biodistribution study was performed in healthy 4 weeks old male C57BL/6J mice. Single dose of peptides or peptide/siRNA complexes were administrated via intratracheal instillation (200 μg) (Table 20). The fluorescence was evaluated by non-invasive in vivo whole-body fluorescence imaging at T0, 1 h, 2 h, 6 h, 24 h, 48 h and 72 hr post injection. Fluorescence images were acquired with the IVIS kinetic system (PerkinElmer) (ex: 640±17 nm; em: 680±10 nm) and semi-quantitative data were obtained from the fluorescence images by using the Living image software (Caliper 2D).
Further analysis of the lung distribution of the different compounds was performed by confocal microscopy. Lungs were collected at 4 hr, 24 hr and 72 hr post administration, fixed in formaldehyde 4% in Glucose 5%. Tissues were stained with Mito tracker red and nucleus with Hoesch.

SARS-CoV-2 ORF 3A gene = assay type: cell-based
SARS-CoV-2 [9] = assay: siRNA/ADGN-100 complexes on SARS-CoV2 virus infection, Vero E6 cells; assay type: cell-based
Vero-6 cells = assay: Cellular toxicity of siRNA/ADGN-100 complexes on Vero-6 cells, CellTiter-Glo; conditions: uninfected Vero-6 cells
[10] = system: SARS-CoV-2 Nucleocapsid gene; assay type: cell-based
SARS-CoV-2 ORF 8 gene = assay type: cell-based
SARS-CoV-2 nucleocapside = assay type: cell-based; conditions: read-out: IC50 of silencing response
[11] = read-out: SARS-COV2 IC50, original strain, second Table 19, siRNA complexed at molar ratio 1/20
[12] = treatments added to Vero-E6 immediately prior to virus infection, Table 16
[13] = read-out: IC50 against SARS-CoV2 virus infection
[14] = siRNA complexed with ADGN-100 at molar ratio 1/20, added to Vero-E6 immediately prior to virus infection, read-out: IC50

In the case of `CCN(CCO)CCCC(C)Nc1ccnc2cc(Cl)ccc12` (centres unmarked) [Hydroxy chloroquine], the “TD50” value (Vero E6 cells; African green monkey) is reported as 190 ± 28 µM, the IC50 (SARS-CoV-2 [1]; Severe acute respiratory syndrome coronavirus 2, Vero C1008, read-out: IC50 against SARS-CoV2 virus infection) is reported as 4400 ± 215 nM and the IC50 (SARS-CoV-2 [1]; Severe acute respiratory syndrome coronavirus 2, Vero C1008, read-out: P-IC50 (nM)) is reported as 4700 nM. It also gave an IC50 (SARS-CoV-2 [1]; Severe acute respiratory syndrome coronavirus 2, Vero, read-out: D-IC50 (nM)) of 4400 ± 215 nM.
For `CC(=O)N[C@@H](CCC(=O)O)C(=O)N[C@@H](CCC(N)=O)C(=O)N[C@@H](C)C(=O)N[C@@H](CCCCN)C(=O)N[C@H](C(=O)N[C@@H](Cc1ccccc1)C(=O)N[C@@H](CC(C)C)C(=O)N[C@@H](CC(=O)O)C(=O)N[C@@H](CCCCN)C(=O)N[C@@H](Cc1ccccc1)C(=O)N[C@@H](CC(N)=O)C(=O)N[C@@H](Cc1c[nH]cn1)C(=O)N[C@@H](CCC(=O)O)C(=O)N[C@@H](C)C(=O)N[C@@H](CCC(=O)O)C(=O)N[C@@H](CC(=O)O)C(=O)N[C@@H](CC(C)C)C(=O)N[C@@H](Cc1ccccc1)C(=O)NCCCCCC(=O)N[C@@H](CC(C)C)C(=O)N[C@@H](Cc1c[nH]c2ccccc12)C(=O)N[C@@H](CCCNC(=N)N)C(=O)N[C@@H](C)C(=O)N[C@@H](CC(C)C)C(=O)N[C@@H](Cc1c[nH]c2ccccc12)C(=O)N[C@@H](CCCNC(=N)N)C(=O)N[C@@H](CC(C)C)C(=O)N[C@@H](Cc1c[nH]c2ccccc12)C(=O)N[C@@H](CCCNC(=N)N)C(=O)N[C@@H](CO)C(=O)N[C@@H](CC(C)C)C(=O)N[C@@H](Cc1c[nH]c2ccccc12)C(=O)N[C@@H](CCCNC(=N)N)C(=O)N[C@@H](CC(C)C)C(=O)N[C@@H](CC(C)C)C(=O)N[C@@H](Cc1c[nH]c2ccccc12)C(=O)N[C@@H](CCCCN)C(N)=O)[C@@H](C)O` [Seq33], the IC50 ([2]; IC50, SARS-COV2) was 0.0184 ± 0.011 µM, the “folds more potent than SBP-1-ADGN-106/ADGN-106 complex” value [3] was 4 folds and the “folds more potent than SBP-1 coupled to ADGN-106” value [3] was 8 folds. The “folds more potent than SBP-1 peptide/ADGN-106 complex” value [3] was 35 folds, the “folds more potent than free SBP-1” value [3] was 14 folds and the IC50 ([3]; SARS-CoV-2 Spike:ACE2 IC50) was 0.178 ± 0.014 µM. The “Mean Size (nm)” value [4] was 45.9 ± 10 nm, the PI [4] was 0.24 and the “lung and liver toxicity associated to treatment” value ([5]; mouse, in vivo) was “no lung and liver toxicity”. For the same compound, the “tolerability upon intratracheal administration” value ([5]; mouse, in vivo) was “well tolerated”, the “Residual Infection (%)” value (SARS-CoV-2 [6]) was 15% and the “fold stronger anti-SARS-CoV-2 activity than hydroxychloroquine sulfate” value (SARS-CoV-2 [6]) was 250 fold. For the same compound, the “increase of potency by pre-incubation with SARS CoV-2 prior infection” value (SARS-CoV-2 [6]) was 2 factor, the “inhibition of viral infection” value (SARS-CoV-2 [6]) was “exhibit inhibition of viral infection” and the IC50 (SARS-CoV-2 [7]; [11]) was 0.0217 ± 0.008 µM. The IC50 (SARS-CoV-2 [7]; [12]) was 0.0229 ± 0.008 µM, the CC50 (in vitro) was 510 ± 31 µM and the viability at 0.5 µM (in vitro) was 94%. For the same compound, the “lung targeting and tissue penetration” value [8] was “significantly penetrate lung tissue”.
In the case of “Ac-G*NYNYLYRLFK*-Ava-LWRALWRLWRSLWRLLWK-NH2 [Seq15]”, the IC50 ([2]; read-out: ACE2:SARS-CoV-2 Spike IC50) is reported as > 10 µM, the IC50 ([3]; read-out: SARS-CoV-2 Spike:ACE2 IC50) is reported as > 1 µM and the “Mean Size (nm)” value [4] is reported as 37.5 ± 5 nm. For the same compound, the PI [4] was 0.23, the “Residual Infection (%)” value (SARS-CoV-2 [6]) was 100% and the “Cell Viability (%)” value (Vero E6 cells; uninfected Vero E6 cells) was 95%.
In the case of “Ac-N*GVEGFNK*Ava-LWRALWRLWRSLWRLLWK-NH2 [Seq17]”, the “Mean Size (nm)” value [4] is reported as 57 ± 4 nm, the PI [4] is reported as 0.17 and the “percentage of the cells in bronchoalveolar lavage” value ([5]; 2 days after instillation, versus saline) is reported as “slight increases of macrophages”. For the same compound, the “lung and liver toxicity associated to treatment” value ([5]; mouse, in vivo) was “no lung and liver toxicity”, the “Residual Infection (%)” value (SARS-CoV-2 [6]) was 20% and the “inhibition of viral infection” value (SARS-CoV-2 [6]) was “exhibit inhibition of viral infection”. The “reduction of anti-viral activity by pre-incubation” value (SARS-CoV-2 [6]) was 2 fold, the IC50 (SARS-CoV-2 [6]; read-out: D-IC50) was 0.0215 ± 0.012 µM and the IC50 (SARS-CoV-2 [6]; read-out: IC50, SARS-COV2) was 0.0315 ± 0.012 µM. The IC50 (SARS-CoV-2 [6]; read-out: P-IC50) was 0.0572 ± 0.012 µM, the “TD50” value (Vero E6 cells; uninfected Vero E6 cells) was 340 ± 28 µM and the “Cell Viability (%)” value (Vero E6 cells; uninfected Vero E6 cells) was 85%. It also gave an IC50 (SARS-CoV-2 [7]; [11]) of 0.0315 ± 0.012 µM and an IC50 (SARS-CoV-2 [7]; [12]) of 0.0275 ± 0.011 µM.
For “Ac-T*NGVGYQPYK*-Ava-LWRALWRLWRSLWRLLWK-NH2 [Seq22]”, the “blocked SARS-CoV-2 Spike: ACE2 interaction” value [3] was “blocked”, the “fold less potent than Seq20/Seq21” value [3] was 3.6 fold and the “Mean Size (nm)” value [4] was 54.4 ± 8 nm. For the same compound, the PI [4] was 0.24, the “Residual Infection (%)” value (SARS-CoV-2 [6]) was 40% and the “inhibition of viral infection” value (SARS-CoV-2 [6]) was “exhibit inhibition of viral infection”. The “reduction of virus infection” value (SARS-CoV-2 [6]) was 60%, the IC50 (SARS-CoV-2 [6]; read-out: D-IC50) was 0.124 ± 0.014 µM and the IC50 (SARS-CoV-2 [6]; read-out: P-IC50) was 0.145 ± 0.025 µM. For the same compound, the “TD50” value (Vero E6 cells; uninfected Vero E6 cells) was 358 ± 27 µM and the “Cell Viability (%)” value (Vero E6 cells; uninfected Vero E6 cells) was 87%.
“CAAGTCCTATTTCTGAACATG (chemistry not given here) [DIVC-33]” gave an IC50 (SARS-CoV-2 ORF 3A gene) of 0.0572 ± 0.012 µM.
“GAACATGTTACCTTCTTCATC (chemistry not given here) [DIVC-34]” showed an IC50 (SARS-CoV-2 ORF 3A gene) of 0.0123 ± 0.001 µM, an IC50 (SARS-CoV-2 [9]; [13]) of ~1 µM and an IC50 (SARS-CoV-2 [9]; [14]) of 1.45 µM. The “TD50 (μM)” value (Vero-6 cells) was 589 + 17 μM.
For “GACAAGGCGTTCCAATTAACA (chemistry not given here) [DIVC-3]”, the IC50 [10] was 0.0114 ± 0.005 µM, the IC50 (SARS-CoV-2 [9]; [14]) was 0.084 ± 0.014 µM and the “TD50 (μM)” value (Vero-6 cells) was 452 + 20 μM.
Compound GACCCGTGTCCTATTCACTTC [DIVC-82] has an IC50 (SARS-CoV-2 ORF 8 gene) of 0.0217 ± 0.007 µM.
With “GCCTCTTCTCGTTCCTCATCA (chemistry not given here) [DIVC-8]” the IC50 [10] was 0.0273 µM, the IC50 (SARS-CoV-2 [9]; [14]) was 0.117 µM and the “TD50 (μM)” value (Vero-6 cells) was 548 + 25 μM.
Work on “GCGTTGTTCGTTCTATGAAGA (chemistry not given here) [DIVC-84]” yielded an IC50 (SARS-CoV-2 ORF 8 gene) of 0.113 ± 0.015 µM.
For “GGCCAAACTGTCACTAAGAAA (chemistry not given here) [DIVC-6]”, the IC50 [10] was 0.0087 ± 0.002 µM, the “fold stronger anti-SARS-CoV-2 activity than hydroxychloroquine sulfate” value (SARS-CoV-2 [9]) was 64 fold and the IC50 (SARS-CoV-2 [9]; [14]) was 0.068 ± 0.012 µM. For the same compound, the IC50 (SARS-CoV-2 nucleocapside) was 0.011 µM and 0.0087 µM, the IC50 (SARS-CoV-2 [7]; [11]) was 0.068 µM and the “TD50 (μM)” value (Vero-6 cells) was 652 + 24 μM.
Compound GGTGAAATCAAGGATGCTACT [DIVC-31] has an IC50 (SARS-CoV-2 ORF 3A gene) of 0.0184 ± 0.002 µM.
Work on “GTCCTATTCACTTCTATTCTA (chemistry not given here) [DIVC-85]” yielded an IC50 (SARS-CoV-2 ORF 8 gene) of 0.0108 ± 0.002 µM, an IC50 (SARS-CoV-2 [9]; [13]) of ~1 µM and an IC50 (SARS-CoV-2 [9]; [14]) of 1.22 µM. The “TD50 (μM)” value (Vero-6 cells) was 248 + 35 μM.
GTGGATGAGGCTGGTTCTAAA [DIVC-83] gave an IC50 (SARS-CoV-2 ORF 8 gene) of 0.0154 ± 0.003 µM.
In the case of “GTGTAACTTCTTCAATTGTCA (chemistry not given here) [DIVC-32]”, the IC50 (SARS-CoV-2 ORF 3A gene) is reported as 0.0951 ± 0.007 µM.
In the case of “GTTGATGACCCGTGTCCTATT (chemistry not given here) [DIVC-81]”, the IC50 (SARS-CoV-2 ORF 8 gene) is reported as > 0.2 µM.
For “KWRSAGWRWRLWRVRSWSR [ADGN-100, reference compound]”, the “TD50 (μM)” value (Vero-6 cells) was 368 + 18 μM.
In the case of “TGCAGAGTATAAACTTTGTAA (chemistry not given here) [DIVC-35]”, the IC50 (SARS-CoV-2 ORF 3A gene) is reported as 0.125 ± 0.011 µM.
